Data from article PMC5914528 (Molecular microbiology, 2018).

Experiments:
QscR [1] = biological target: T1, QscR (Pseudomonas aeruginosa, UniProt G3XD77); assay type: cell-based; settings: for Activation (%): 100% = activity of 3OC12-HSL
QscR [2] = biological target: T1, QscR; settings: DNA binding of QscR with ligand; Eqn 5
LasR = LasR (Pseudomonas aeruginosa, UniProt P25084); assay: LasR agonism/antagonism assay, E. coli reporter strain; assay type: cell-based; settings: Table S2 (supplement not shown)
Chain of LasR (P25084 whole entry): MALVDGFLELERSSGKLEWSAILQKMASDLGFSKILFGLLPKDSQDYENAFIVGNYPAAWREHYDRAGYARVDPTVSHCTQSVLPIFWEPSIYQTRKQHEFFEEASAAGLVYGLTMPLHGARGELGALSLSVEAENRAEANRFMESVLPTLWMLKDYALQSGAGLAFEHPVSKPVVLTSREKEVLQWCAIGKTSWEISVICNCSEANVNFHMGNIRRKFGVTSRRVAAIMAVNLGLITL

Structure (SMILES) | Activation (%) (QscR [1]) | Hill coefficient (QscR [2]) | EC50 (QscR [1]; E. coli JLD271 QscR reporter) [nM] | activity on LasR in cell-based reporter assays (LasR)
CCCCCCCCCC(=O)CC(=O)N[C@H]1CCOC1=O [3OC12-HSL, N-(3-oxododecanoyl) L-homoserine lactone] | 100 | 1.7 ± 0.4 | – | –
O=C(CCCOc1ccc(Cl)cc1)NC1CCOC1=O (stereo not drawn) [CL] | 86 | 1.9 ± 0.3 | 16 | inhibited
